Experimental findings from patent publication US20190269614A1, “CHEWABLE TABLET CONTAINING VITAMIN C SODIUM AND PREPARATION METHOD THEREOF” (GUANGXI SANPOTEL HEALTH INDUSTRY CO. LTD, priority 2016, published 2019) are described below.

A short description of this series: Lubricant trial: tabletting of vitamin C sodium chewable tablets with different lubricants. It counts as physicochemical. As to conditions: for Tabletting condition: granules with the named lubricant; for Friability / Hardness: tablets with the named lubricant. The source says: During tabletting, in order to increase granule fluidity, and ensure good filling and even distribution of tablet density, a certain amount of lubricant needs to be added to solve the problems of poor granule fluidity and sticking during tabletting. In the experiment of the present application, tabletting conditions when magnesium stearate, micro-powder silica gel, talcum powder, sodium dodecyl sulfate and mannitol were used as the lubricant were compared, and results are shown in Table 3.
From the test results in Table 3, it can be seen that when magnesium stearate, sodium dodecyl sulfate and mannitol are used, fluidity is good and sticking during tabletting is avoided, and prepared tablets have appropriate hardness and smooth and beautiful surfaces; when micro-powder silica gel is added, fluidity is good and sticking during tabletting is avoided, but the hardness of prepared tablets is low; and when talcum powder is added, fluidity is poor and sticking occurs during tabletting, and prepared tablets have large hardness. Therefore, magnesium stearate, sodium dodecyl sulfate and mannitol are selected as the lubricant in the present application.

Consider magnesium stearate, for which the Tabletting condition entry is on record as “non-sticking”, the Friability is given as 0.34% and the Hardness is recorded as 49 N.
For the compound `OC[C@@H](O)[C@@H](O)[C@H](O)[C@H](O)CO` [mannitol], the Tabletting condition entry is on record as “non-sticking”, the Friability is on record as 0.39% and the Hardness was determined as 54 N.
In the same order, the values of `CCCCCCCCCCCCOS(=O)(=O)[O-].[Na+]` [sodium dodecyl sulfate] are “non-sticking”, 0.42% and 59 N.
